The numbers were not newly measured in patent US20050058722A1, “Herbo-mineral formulation for refractory leukemias and lymphomas” (Sahajanand Biotech Private Limited, priority 2003, published 2005), which cites them from elsewhere.

One data set relates to lymphoid neoplasms. To be noted: pre-clinical studies.
The subject of data set [1] is myeloid leukemia cell lines. To be noted: pre-clinical studies.

Consider Arsenic trioxide, for which the “Apoptosis and cell cycle” value in the data set with lymphoid neoplasms was “induction of apoptosis and cell cycle arrest”. For the same substance, the Apoptosis and differentiation entry in data set [1] is “dose-dependent induction of apoptosis and partial differentiation”.
